Here are results for two molecules from patent US20260055369A1, “METHOD FOR GENERATING CELLS OF THE T CELL LINEAGE WITH ENGINEERING BROADLY REACTIVE HUMAN NOTCH LIGAND” (H. Lee Moffitt Cancer Center and Research Institute, Inc., priority 2022, published 2026).

pIC50: −log10 of the molar value.

The pIC50 is the negative decadic logarithm of the IC50, by convention in mol/L.

For assay [1], the system named is Notch1. Kind of assay: Notch inhibition assay with soluble antagonists and WT DLL4 coated plates (CHO-K1 N1-Gal4). It is filed as cell-based. The following applies: comparison with DAPT and BB-94, plates coated with 50 nM WT DLL4; FIG. 4B; read-out: IC50 for inhibition of Notch1 activation. How it is done:
For CHO-K1 N1-Gal4 reporter cells, on day one, biotinylated WT DLL4 was pre-coated in 96-well plates at 50 nM following the same protocol described above. Next, CHO-K1 N1-Gal4 cells were detached with trypsin-EDTA, washed, and diluted at 200,000 cells/mL in α-MEM media. Ten-fold serial dilutions of non-biotinylated DLL4 ligands (N-EGF5) were prepared in DPBS starting at 600 nM. Next, soluble inhibitors were mixed in ratio 1:1 with CHO-K1 N1-Gal4 200,000 cells/mL stocks for 15 min at room temperature to pre-block Notch receptors. Two hundred microliters of inhibition reactions containing 20,000 reporter cells were added to WT DLL4-coated wells, and plates incubated for 24 hours at 37° C. and 5% CO2. When DAPT (gamma-secretase inhibitor, Sigma) and BB-94 (ADAM metalloprotease inhibitor, Sigma) were used, stock solutions were prepared at 100 μM in 8% DMSO. Appropriate DMSO controls were included to test Notch activation and cell viability. Final DMSO concentration in the experiment was kept below 1%. […] On day two, assay plates were washed with 200 μL of DPBS, CHO-K1 N1-Gal4 cells detached with trypsin-EDTA, quenched with 200 μL of α-MEM media, and Notch activation measured by flow cytometry (BD Accuri C6 Plus). […]

For assay [2], the system named is Notch1. Kind of assay: Notch inhibition assay in co-culture format (CHO-K1 N1-Gal4 with HEK293T expressing WT DLL4). Type of assay: cell-based. The following applies: co-culture 1:1 with HEK293T expressing WT DLL4; read-out: IC50 for inhibition of Notch1 activation by cellular DLL4. Here is the method: For inhibition of CHO-K1 N1-Gal4 cells with DAPT and Delta^MAX, the experiment was set-up following the protocol described above with the exception that CHO-K1 N1-Gal4 reporters were incubated with HEK293T-expressing WT DLL4 for Notch activation. Three-fold serial dilutions of soluble Delta^MAX and DAPT were prepared in DPBS starting at 6,000 nM. For DAPT, a stock solution of 100 μM in 8% DMSO was prepared before serial dilutions in DPBS. Appropriate DMSO controls were also assayed for cytotoxicity. Final DMSO concentration in the wells was maintained below 1%. Thirty thousand signal senders and pre-blocked signal receivers (100 μL each) were incubated for 24 hours at 37° C. and 5% CO2 before analysis by flow cytometry. Maximum Notch activation (100%) was set in the absence of soluble inhibitors and normalized to wells containing CHO-K1 N1-Gal4 cells and HEK293T lacking expression of WT DLL4. Mean fluorescence intensity is represented as percentage relative to Notch activation in the absence of inhibitors±s.d. of three independent biological replicates.

For the molecule `CNC(=O)[C@H](Cc1ccccc1)NC(=O)[C@H](CC(C)C)[C@H](CSc1cccs1)C(=O)NO` [BB-94, reference compound], the pIC50 in assay [1] was 6.00.
Regarding `C[C@H](NC(=O)Cc1cc(F)cc(F)c1)C(=O)N[C@H](C(=O)OC(C)(C)C)c1ccccc1` [DAPT, reference compound], the pIC50 was 7.00 in assay [2] and 7.40 in assay [1].
